The values that follow come from PMC6771811, “The structure of a GH149 β‐(1 → 3) glucan phosphorylase reveals a new surface oligosaccharide binding site and additional domains that are absent in the disaccharide‐specific GH94 glucose‐β‐(1 → 3)‐glucose (laminaribiose) phosphorylase” (Proteins, 2019).

The test deals with T1, Pro_7066 (uncultured bacterium, UniProt Z9M604V374).
T1 construct: His6-tagged, pET28a, E. coli BL21 (DE3); tag removal not mentioned; 130-kDa chain, homodimer; domains span residues 1-1156; GH149
T1 sequence (Z9M604V374 20-1175): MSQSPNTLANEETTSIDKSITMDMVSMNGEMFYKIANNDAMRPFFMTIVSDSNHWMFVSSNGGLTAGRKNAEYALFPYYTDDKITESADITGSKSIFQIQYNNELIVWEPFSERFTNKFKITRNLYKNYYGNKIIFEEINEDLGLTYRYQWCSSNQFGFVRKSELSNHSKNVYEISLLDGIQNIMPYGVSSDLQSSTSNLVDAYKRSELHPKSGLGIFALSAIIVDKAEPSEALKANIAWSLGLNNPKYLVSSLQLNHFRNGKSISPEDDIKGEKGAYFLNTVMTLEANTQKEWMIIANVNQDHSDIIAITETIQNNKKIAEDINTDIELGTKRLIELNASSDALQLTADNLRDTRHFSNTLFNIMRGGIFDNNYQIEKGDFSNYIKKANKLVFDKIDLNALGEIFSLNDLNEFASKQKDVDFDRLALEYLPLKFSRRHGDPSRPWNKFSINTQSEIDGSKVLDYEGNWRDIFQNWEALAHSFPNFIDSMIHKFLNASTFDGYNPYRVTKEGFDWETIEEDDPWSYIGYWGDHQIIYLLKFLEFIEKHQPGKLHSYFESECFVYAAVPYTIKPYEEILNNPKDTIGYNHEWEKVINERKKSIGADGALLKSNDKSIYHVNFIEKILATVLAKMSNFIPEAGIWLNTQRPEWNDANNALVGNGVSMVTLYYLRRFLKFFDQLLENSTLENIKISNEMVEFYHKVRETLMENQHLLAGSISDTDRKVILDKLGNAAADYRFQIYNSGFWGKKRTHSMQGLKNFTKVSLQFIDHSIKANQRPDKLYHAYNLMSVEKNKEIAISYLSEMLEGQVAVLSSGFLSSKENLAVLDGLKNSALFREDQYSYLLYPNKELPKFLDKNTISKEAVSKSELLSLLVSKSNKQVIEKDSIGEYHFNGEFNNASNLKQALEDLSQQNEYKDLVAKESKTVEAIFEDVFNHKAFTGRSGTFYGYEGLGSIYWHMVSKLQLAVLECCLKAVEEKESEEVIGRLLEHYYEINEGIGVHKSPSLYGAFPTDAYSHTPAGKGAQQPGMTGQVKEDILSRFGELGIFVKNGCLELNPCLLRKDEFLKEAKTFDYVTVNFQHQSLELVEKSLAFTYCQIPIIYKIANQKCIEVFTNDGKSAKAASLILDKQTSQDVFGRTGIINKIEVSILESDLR
Kind of test: X-ray crystal structure (co-crystallization), […] Å. The following applies: 8 mM G6, pH 9.0; surface binding site on catalytic domain, ~30 Å from active site; active site holds bicine and sulfate.

On to `OC[C@H]1O[C@@H](O[C@@H]2[C@@H](O)[C@H](O[C@@H]3[C@@H](O)[C@H](O[C@@H]4[C@@H](O)[C@H](O[C@@H]5[C@@H](O)[C@H](O[C@H]6[C@H](O)[C@@H](CO)OC(O)[C@@H]6O)O[C@H](CO)[C@H]5O)O[C@H](CO)[C@H]4O)O[C@H](CO)[C@H]3O)O[C@H](CO)[C@H]2O)[C@H](O)[C@@H](O)[C@@H]1O` (stereo partly shown) [G6, laminarihexaose], for which the “X-ray crystal structure (co-crystallization), 2.25 Å” value is recorded as “G6 bound to a SBS located on the solvent‐exposed surface of the catalytic domain”.
